These are literature values, as cited in paper PMC4780677 (Annual reports in medicinal chemistry, 2012).

In the data set the test system is mGlu5 receptor. Conditions: cell lines; mGlu5 receptor ago-PAM vs pure PAM.

Consider `O=C(c1ccc(C#Cc2cccc(F)c2)nc1)N1CCC(O)CC1` [VU0361747], for which the intrinsic agonist activity entry is listed as “devoid of intrinsic agonist activity”. Regarding `O=C(NC1CCC1)c1ccc(C#Cc2cccc(F)c2)nc1` [VU0360172], the intrinsic agonist activity entry is listed as “maximal intrinsic agonist activity”.
